This is an account of results in patent US20260034119A1, “5-METHOXY-N,N-[…][…], THEIR […], AND METHODS FOR TREATMENT OF NEUROLOGICAL, […], AND SUBSTANCE USE DISORDERS” (priority 2023, published 2026).

Test [1] concerns all human 5-HT receptor subtypes. Nature of the test: PRESTO-TANGO arrestin-recruitment assay. Type of test: cell-based. Particulars: compared with 5-HT1A. The protocol:
The receptor contructs were obtained from Addgene and contain the TEV cleavage site and the tetracycline transactivator (tTA) fused to the C terminus of the receptor. For the assay, constructs were transfected into HTLA cells (kindly provided by Dr. Bryan Roth, University of North Carolina), which express TEV fused-β-Arrestin2 and a tetracycline transactivator-driven luciferase and are necessary for this assay. A day before the assay cells were cultured in DMEM supplemented with 1% dFBS and transfected with 8 μg of DNA per 7 million cells in a 10 cm plate using PEI transfection. The next day, 20,000 cells in 40 μl were then plated in poly-L-lysine-coated clear-bottom 384-well plates in the same media and incubated for at least 5 hr before stimulation. […] After 16-24 hr overnight incubation, media and drug solutions were aspirated and 20 μl per well of BrightGlo reagent (purchased from Promega, after 1:20 dilution) was added per well. The plate was incubated for 20 min at room temperature in the dark before being counted using a MicroBeta TriLux liquid scintillation counter.

Another test concerns the target T1, OCT2 (Homo sapiens, UniProt O15244).
T1 construct: expressed in transfected cells; host or cells: Flp-In T-Rex cell line (ThermoFisher), tetracycline-induced
T1 sequence (O15244 1-555): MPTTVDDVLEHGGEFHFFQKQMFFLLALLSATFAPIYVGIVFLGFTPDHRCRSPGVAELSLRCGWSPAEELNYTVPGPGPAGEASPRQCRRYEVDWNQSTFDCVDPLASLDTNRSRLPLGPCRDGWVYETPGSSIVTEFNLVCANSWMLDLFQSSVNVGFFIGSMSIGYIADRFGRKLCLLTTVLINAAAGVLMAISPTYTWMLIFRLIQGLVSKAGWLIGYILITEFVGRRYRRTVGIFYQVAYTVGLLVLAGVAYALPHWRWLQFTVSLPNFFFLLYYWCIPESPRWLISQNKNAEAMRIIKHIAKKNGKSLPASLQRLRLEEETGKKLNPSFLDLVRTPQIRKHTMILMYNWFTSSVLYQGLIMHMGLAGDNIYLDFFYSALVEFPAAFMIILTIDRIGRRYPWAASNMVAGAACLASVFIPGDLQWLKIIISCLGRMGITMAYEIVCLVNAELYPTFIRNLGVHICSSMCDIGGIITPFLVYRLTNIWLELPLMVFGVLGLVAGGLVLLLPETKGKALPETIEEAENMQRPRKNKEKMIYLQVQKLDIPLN
The experiment in a line: OCT2 uptake inhibition. The class given is cell-based. The settings on record: compared with 5-HT1A. The procedure:
(§1) Inducible cell lines stably expressing OCT1, OCT2, or PMAT were generated using the Flp-In T-Rex cell line (ThermoFisher) according to manufacturer recommendations. Cells were maintained in DMEM supplemented with 10% FBS, 100 μg/ml hygromycin B (GoldBio), and 10 μg/ml blasticidin (GoldBio). To measure uptake inhibition, cells were seeded into poly-L-lysine coated clear-bottom 384-well plates at a density of 25,000 cells per well in DMEM containing 10% FBS and 2 μg/ml of tetracycline (Sigma) to induce transporter expression. […] Cells were incubated with drug for 30 min at 37° C. Fluorescent substrate was then added to the cells. […] Cells were incubated with respective substrates for an hour at 37° C. OCT2 cells were read directly in a Victor NIVO plate reader using 495 nm excitation and 580 emission filter for 0.1 s. OCT1 and PMAT cells were washed in HBSS supplemented with 20 mM HEPES pH 7.4 before reading in a Victor NIVO plate reader using 435 nm excitation and 480 nm emission filter for 0.1 s.

The target in another test is T2, PMAT (Homo sapiens, UniProt Q7RTT9).
T2 construct: expressed in transfected cells; host or cells: Flp-In T-Rex cell line (ThermoFisher), tetracycline-induced
T2 sequence (Q7RTT9 1-530): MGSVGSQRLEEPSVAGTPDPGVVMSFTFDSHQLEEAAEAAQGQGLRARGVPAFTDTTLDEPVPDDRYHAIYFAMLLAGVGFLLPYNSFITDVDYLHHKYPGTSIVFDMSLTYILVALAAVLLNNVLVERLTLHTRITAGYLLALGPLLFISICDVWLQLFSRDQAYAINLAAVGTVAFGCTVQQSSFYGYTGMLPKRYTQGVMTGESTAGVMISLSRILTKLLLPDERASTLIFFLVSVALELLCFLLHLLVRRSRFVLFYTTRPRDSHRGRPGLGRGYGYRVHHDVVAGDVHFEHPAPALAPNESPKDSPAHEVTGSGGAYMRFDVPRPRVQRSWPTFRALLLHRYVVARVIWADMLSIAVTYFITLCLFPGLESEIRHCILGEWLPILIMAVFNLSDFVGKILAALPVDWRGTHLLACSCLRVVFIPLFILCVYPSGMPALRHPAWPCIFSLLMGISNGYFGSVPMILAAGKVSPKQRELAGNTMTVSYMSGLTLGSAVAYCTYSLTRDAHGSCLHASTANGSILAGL
Nature of the test: PMAT uptake inhibition. Type of test: cell-based. The settings on record: compared with 5-HT1A. The procedure: as §1

The next test has as its target T3, human 5-HT1A (Homo sapiens, UniProt P08908).
T3 sequence (P08908 1-422): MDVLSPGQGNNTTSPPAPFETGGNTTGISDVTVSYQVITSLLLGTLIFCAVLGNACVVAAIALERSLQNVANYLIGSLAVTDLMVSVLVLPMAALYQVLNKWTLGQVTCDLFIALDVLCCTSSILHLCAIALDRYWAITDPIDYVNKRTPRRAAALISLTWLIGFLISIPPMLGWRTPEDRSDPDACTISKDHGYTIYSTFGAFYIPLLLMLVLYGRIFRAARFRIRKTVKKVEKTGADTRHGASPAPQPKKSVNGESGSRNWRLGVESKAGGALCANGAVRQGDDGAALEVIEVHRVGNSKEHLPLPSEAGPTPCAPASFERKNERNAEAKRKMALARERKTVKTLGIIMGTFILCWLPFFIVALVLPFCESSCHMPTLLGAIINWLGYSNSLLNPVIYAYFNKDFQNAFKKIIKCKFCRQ
The experiment in a line: 5-HT1A-mediated cAMP reduction assay (GloSensor, HEK293-T). Particulars: cAMP, 5-HT1A WT.

SMILES strings stand for the structures.

Turning to `COc1ccc2[nH]cc(CCN3CCCC3)c2c1F` [4-F, 5-MeO-PyrT, 4-Fluoro, 5-methoxypyrrolidinyl-tryptamine], the “activity at all other G protein-coupled serotonin receptors” value in test [1] was “substantially lower activity”. The “activity at other neurotransmitter transporters (OCT2)” value at OCT2 is reported as “substantially lower activity”. Moreover, the “activity at other neurotransmitter transporters (PMAT)” value on PMAT is “substantially lower activity”. In addition, at human 5-HT1A, the EC50 is 0.03 nM and the pEC50 turned out to be 10.5.
